Reference: patent EP4722201A1, “3-PHENYLISOXAZOLINE-5-CARBOXAMIDE COMPOUND, AND PREPARATION METHOD THEREFOR, HERBICIDAL COMPOSITION THEREOF AND USE THEREOF” (Jiangsu Flag Chemical Industry Co., Ltd, priority 2023, dated 2024)

Tests used:
Assay type in all cases: in vivo
Cyperus iria [1] = assay: Indoor herbicide activity determination, post-emergence (stem and leaf spray at 2-4 leaf stage); details: 504 h, determined 21 days later, read-out: Inhibition rate of fresh weight, Cyperus iria; for inhibition at 30 g/ha: 30 g a.i./ha
Excerpt: (§1) The testing method for herbicide activity of the compound of the present invention was as follows:
(§2) Post-emergence: an appropriate quantity of seeds of gramineous weeds (Echinochloa crusgalli, Eleusine indica, Digitaria sanguinalis, Alopecurus japonicus, Beckmannia syzigachne, Leptochloa chinensis, Polypogon fugax, Alopecurus aequalis, Lolium multiflorum, Poa annua, Aegilops tauschii, Avena fatua, Alopecurus myosuroides, Alopecurus japonicus and Alopecurus aequalis), broad-leaved weeds (Eclipta prostrata, Amaranthus retroflexus, Rorippa indica, Malachium aquaticum, Veronica polita, Conyza canadensis, Sesbania cannabina, Sagittariatrifolia and Schoenoplectiella juncoides), and Cyperus iria were sown in plastic pots having a diameter of 7 cm and holes at the bottom and filled with nutrient soil (sandy soil, pH 6.1, organic matter 1%) respectively, the seeds were covered with an appropriate amount of soil after being sown, then the soil was wetted with water from the bottom, the seeds were cultured in a constant-temperature illuminated culture room until a 2-4 leaf stage, and stems and leaves underwent spray treatment. After the treatment, the test materials were placed in a laboratory and cultured in the constant-temperature illuminated culture room after the liquid was naturally dry in the shade, and results were determined 21 days later. Inhibition rate of fresh weight % = (1−(fresh weight of treated plants)/(fresh weight of control plants)) × 100% [formula]

Digitaria sanguinalis [2] = assay: as above; details: 504 h, determined 21 days later, read-out: Inhibition rate of fresh weight, Digitaria sanguinalis; for inhibition at 30 g/ha: 30 g a.i./ha
Excerpt: as §1, §2

Aegilops tauschii = assay: Indoor herbicide activity determination, Seed Treatment; pre-emergence (soil spray); details: read-out: Herbicidal activities (inhibition rate) Aegilops tauschii; for inhibition at 60 g/ha: 60 g a.i./ha; for inhibition at 120 g/ha: 120 g a.i./ha
Summary of the method: (§3)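 Sow seeds into soil-filled 7 cm pots (sandy, pH 6.1, 1% organic matter) and cover them. Water from beneath, then incubate 24 h in a lit, temperature-controlled chamber. Spray the soil in a traveling tower, let it dry in shade, grow on 21 days, and weigh fresh biomass against controls.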

Alopecurus japonicus = assay: as above
Summary of the method: as §3

Cyperus iria [3] = assay: as above; details: read-out: Herbicidal activities (inhibition rate) Cyperus iria; for inhibition at 60 g/ha: 60 g a.i./ha; for inhibition at 120 g/ha: 120 g a.i./ha
Summary of the method: as §3

Digitaria sanguinalis [4] = assay: as above; details: read-out: Herbicidal activities (inhibition rate) Digitaria sanguinalis; for inhibition at 60 g/ha: 60 g a.i./ha; for inhibition at 120 g/ha: 120 g a.i./ha
Summary of the method: as §3

Eclipta prostrata [5] = assay: as above; details: read-out: Herbicidal activities (inhibition rate) Eclipta prostrata; for inhibition at 60 g/ha: 60 g a.i./ha; for inhibition at 120 g/ha: 120 g a.i./ha
Summary of the method: as §3

Eleusine indica = assay: as above
Summary of the method: as §3

Leptochloa chinensis = assay: as above
Summary of the method: as §3

Eclipta prostrata [6] = assay: Indoor herbicide activity determination, post-emergence (stem and leaf spray at 2-4 leaf stage); details: 504 h, determined 21 days later, read-out: Inhibition rate of fresh weight, Eclipta prostrata
Excerpt: as §1, §2

Alopecurus myosuroides = assay: Indoor herbicide activity determination, Seed Treatment; pre-emergence (soil spray)
Summary of the method: as §3

Lolium multiflorum = assay: as above
Summary of the method: as §3

Row | SMILES | inhibition at 30 g/ha (Cyperus iria [1]) [%] | inhibition at 30 g/ha (Digitaria sanguinalis [2]) [%] | inhibition at 60 g/ha (Aegilops tauschii) [%] | Herbicidal activity (inhibition rate class), Alopecurus japonicus (Alopecurus japonicus; Dosage 120 g a.i./ha) | inhibition at 60 g/ha (Cyperus iria [3]) [%] | inhibition at 60 g/ha (Digitaria sanguinalis [4]) [%] | inhibition at 60 g/ha (Eclipta prostrata [5]) [%] | Herbicidal activity (inhibition rate class), Eleusine indica (Eleusine indica; Dosage 120 g a.i./ha) | Herbicidal activity (inhibition rate class), Leptochloa chinensis (Leptochloa chinensis; Dosage 120 g a.i./ha) | inhibition at 120 g/ha (Aegilops tauschii) [%] | Herbicidal activity (inhibition rate class), Alopecurus japonicus (Alopecurus japonicus; Dosage 240 g a.i./ha) | Herbicidal activity (inhibition rate class), Alopecurus myosuroides (Alopecurus myosuroides; Dosage 240 g a.i./ha) | inhibition at 120 g/ha (Cyperus iria [3]) [%] | inhibition at 120 g/ha (Digitaria sanguinalis [4]) [%] | inhibition at 120 g/ha (Eclipta prostrata [5]) [%] | Herbicidal activity (inhibition rate class), Eleusine indica (Eleusine indica; Dosage 240 g a.i./ha) | Herbicidal activity (inhibition rate class), Leptochloa chinensis (Leptochloa chinensis; Dosage 240 g a.i./ha) | Herbicidal activity (inhibition rate class), Lolium multiflorum (Lolium multiflorum; Dosage 240 g a.i./ha) | also measured
1 | C=C[C@]1(C(=O)N[C@H]2C=C[C@@H](C(=O)OC)C2)CC(c2cc(Cl)cc(C(F)(F)F)c2)=NO1 [I-477] | 80 to 100 | 60 to 80 | 80 to 100 | B (B indicates that the inhibition rate was greater than or equal to 60% to less than 80%) | 60 to 80 | 60 to 80 | 40 to 60 | A (A indicates that the inhibition rate was greater than or equal to 80% to 100%) | A (A indicates that the inhibition rate was greater than or equal to 80% to 100%) |  |  |  |  |  |  |  |  |  | 
2 | COC(=O)[C@H]1C[C@@H](NC(=O)C2(CF)CC(c3cc(F)cc(F)c3)=NO2)C1 (relative stereo) [I-310] |  |  |  |  |  |  |  |  |  |  |  |  |  |  |  |  |  |  | inhibition at 60 g/ha (Cyperus iria [1]; 60 g a.i./ha): 80 to 100%; inhibition at 60 g/ha (Digitaria sanguinalis [2]; 60 g a.i./ha): 80 to 100%; inhibition at 60 g/ha (Eclipta prostrata [6]; 60 g a.i./ha): 60 to 80%; Herbicidal activities, Alopecurus japonicus (inhibition rate class) (Alopecurus japonicus; Dosage 240 g a.i./ha): A (A indicates that the inhibition rate was greater than or equal to 80% to 100%); Herbicidal activities, Alopecurus myosuroides (inhibition rate class) (Alopecurus myosuroides; Dosage 240 g a.i./ha): A (A indicates that the inhibition rate was greater than or equal to 80% to 100%); Herbicidal activities, Leptochloa chinensis (inhibition rate class) (Leptochloa chinensis; Dosage 240 g a.i./ha): A (A indicates that the inhibition rate was greater than or equal to 80% to 100%); Herbicidal activities, Lolium multiflorum (inhibition rate class) (Lolium multiflorum; Dosage 240 g a.i./ha): A (A indicates that the inhibition rate was greater than or equal to 80% to 100%)
3 | C=C[C@]1(C(=O)N[C@H]2C=C[C@@H](C(=O)OC)C2)CC(c2cc(F)cc(F)c2)=NO1 [CK2, reference compound] | 60 to 80 | 60 to 80 |  |  |  |  |  |  |  |  |  |  |  |  |  |  |  |  | inhibition at 30 g/ha (Eclipta prostrata [6]; 30 g a.i./ha): 20 to 40%
4 | CC1(C(=O)N[C@H]2C=C[C@@H](C(=O)O)C2)CC(c2cc(F)cc(C(F)(F)F)c2)=NO1 (stereo partly shown) [I-493] |  |  |  |  |  |  |  |  |  | 80 to 100 | A (A indicates that the inhibition rate was greater than or equal to 80% to 100%) | A (A indicates that the inhibition rate was greater than or equal to 80% to 100%) | 80 to 100 | 60 to 80 | 60 to 80 | A (A indicates that the inhibition rate was greater than or equal to 80% to 100%) | A (A indicates that the inhibition rate was greater than or equal to 80% to 100%) | A (A indicates that the inhibition rate was greater than or equal to 80% to 100%) | 
5 | CSCCOC(=O)[C@@H]1C=C[C@H](NC(=O)C2(C)CC(c3cc(F)cc(OC(F)(F)F)c3)=NO2)C1 (stereo partly shown) [I-490] |  |  |  |  |  |  |  |  |  | 80 to 100 | A (A indicates that the inhibition rate was greater than or equal to 80% to 100%) | A (A indicates that the inhibition rate was greater than or equal to 80% to 100%) | 80 to 100 | 80 to 100 | 80 to 100 | A (A indicates that the inhibition rate was greater than or equal to 80% to 100%) | A (A indicates that the inhibition rate was greater than or equal to 80% to 100%) | A (A indicates that the inhibition rate was greater than or equal to 80% to 100%) | 
6 | C#C[C@@H](C)OC(=O)[C@@H]1C=C[C@H](NC(=O)[C@@]2(C(F)(F)F)CC(c3cc(F)cc(C(F)(F)F)c3)=NO2)C1 [I-521] |  |  | 80 to 100 | A (A indicates that the inhibition rate was greater than or equal to 80% to 100%) | 80 to 100 | 80 to 100 | 80 to 100 | A (A indicates that the inhibition rate was greater than or equal to 80% to 100%) | A (A indicates that the inhibition rate was greater than or equal to 80% to 100%) |  |  |  |  |  |  |  |  |  | Herbicidal activity (inhibition rate class), Alopecurus myosuroides (Alopecurus myosuroides; Dosage 120 g a.i./ha): A (A indicates that the inhibition rate was greater than or equal to 80% to 100%); Herbicidal activity (inhibition rate class), Lolium multiflorum (Lolium multiflorum; Dosage 120 g a.i./ha): A (A indicates that the inhibition rate was greater than or equal to 80% to 100%)
